# Results as given in ChEMBL document CHEMBL1201862, “PubChem BioAssay data set” (2004).
# Calls of active or inactive are those of the source.
# Assays:
# [1] = non-specific 3'UTR reporter inhibition in Clone20-Shn3RL – cell-based, Renilla luciferase, cherry-picked, counter-screen for Shn3 inhibitor project, dose response (AID 624133); type: functional
# [2] = reduction of Shn3 3'UTR-driven luciferase in osteoblasts – cell-based, Clone20 osteoblasts, firefly luciferase, cherry-picked, dose response (AID 624132); type: functional;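 note: firefly luciferase luminescence from reporter carrying the Shn3 3'UTR in osteoblasts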
# [3] = biological target: T1, Heat shock factor protein 1 (Mus musculus, UniProt P38532); assay: enhancement of HSF1-driven luciferase signal – cell-based, NIH3T3, luminescence, dose retest, confirmation (AID 435004); type: functional;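 note: stress induced by proteasome inhibitor MG132 added 30 min after compound; luciferase reporter driven by HSF1 response element in NIH3T3 cells; actives raise luminescence as potentiators of the MG132 stress response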
# T1 sequence (P38532 whole entry): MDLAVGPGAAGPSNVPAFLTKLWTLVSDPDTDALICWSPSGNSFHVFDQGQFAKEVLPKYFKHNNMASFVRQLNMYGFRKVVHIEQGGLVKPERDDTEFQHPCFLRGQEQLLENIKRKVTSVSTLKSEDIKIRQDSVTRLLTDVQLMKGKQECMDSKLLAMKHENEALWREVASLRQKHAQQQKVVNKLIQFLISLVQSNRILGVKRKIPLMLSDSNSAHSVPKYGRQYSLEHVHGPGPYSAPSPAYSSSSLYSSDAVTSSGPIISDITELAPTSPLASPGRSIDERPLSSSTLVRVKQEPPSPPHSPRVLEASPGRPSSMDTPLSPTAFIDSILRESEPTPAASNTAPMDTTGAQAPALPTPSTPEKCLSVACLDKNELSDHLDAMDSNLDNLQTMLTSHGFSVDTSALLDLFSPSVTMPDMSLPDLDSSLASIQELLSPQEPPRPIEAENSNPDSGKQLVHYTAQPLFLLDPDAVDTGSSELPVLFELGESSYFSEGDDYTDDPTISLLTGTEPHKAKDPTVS
# [4] = loss of viability in HepG2 cells – cell-based, CellTiter-Glo, cherry-picked, cytotoxicity control for Shn3 inhibitor project, dose response (AID 624134); type: functional
# [5] = fluconazole-exposed Candida albicans growth modulators – fluorescence, retest, confirmation (AID 2467); type: functional, cell-based
# [6] = HPDE-C7 pancreatic duct cell viability loss – fluorescence, HTS (AID 430); type: functional, cell-based; settings: Homo sapiens
# [7] = viability loss of HPDE-C7K cells – cell-based, fluorescence, HTS, primary screen (AID 431); type: functional; settings: Homo sapiens
# [8] = NIH-3T3 fibroblast cytotoxicity, dose response, cytotoxicity control, cell-based, fluorescence, Alamar Blue, secondary assay (AID 2327); type: functional;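 note: NIH-3T3 mouse fibroblasts cultured with fluconazole at 8 µg/mL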
# Leucine aminopeptidase = biological target: T2, Leucine aminopeptidase (Plasmodium falciparum 3D7, UniProt Q8IL11); assay: P. falciparum M17LAP inhibitors, primary screen, biochemical, fluorogenic H-Leu-NHMec substrate, 1536-well (AID 1619); type: functional
# T2 sequence (Q8IL11 whole entry): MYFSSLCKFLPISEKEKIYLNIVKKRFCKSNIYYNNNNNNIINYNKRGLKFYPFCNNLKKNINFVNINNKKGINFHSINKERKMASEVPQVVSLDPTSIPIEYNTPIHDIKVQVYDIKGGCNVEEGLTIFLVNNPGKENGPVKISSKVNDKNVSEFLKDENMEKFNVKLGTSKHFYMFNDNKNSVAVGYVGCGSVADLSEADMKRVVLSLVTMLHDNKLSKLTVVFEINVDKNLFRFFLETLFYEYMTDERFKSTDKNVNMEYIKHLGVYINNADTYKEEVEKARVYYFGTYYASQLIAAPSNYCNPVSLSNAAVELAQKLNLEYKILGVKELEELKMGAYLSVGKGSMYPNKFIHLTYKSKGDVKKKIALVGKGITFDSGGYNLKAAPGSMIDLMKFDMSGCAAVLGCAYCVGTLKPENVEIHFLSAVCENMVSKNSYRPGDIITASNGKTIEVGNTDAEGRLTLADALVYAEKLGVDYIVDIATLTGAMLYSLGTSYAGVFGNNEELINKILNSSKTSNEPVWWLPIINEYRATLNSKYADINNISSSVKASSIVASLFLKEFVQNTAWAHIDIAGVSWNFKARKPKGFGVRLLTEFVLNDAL
# [9] = Trypanosoma cruzi growth suppression in host cells – NIH3T3 host cells, beta-gal luminescence, confirmation (AID 2044); type: functional, cell-based;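 note: intracellular parasites grown in NIH/3T3 mouse fibroblasts as host cells; luminescent beta-galactosidase reporter signal from transgenic T. cruzi replicating inside host cells; inhibitors lower the luminescence signal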
# [10] = microbe, parasite or virus in culture; type: functional; settings: Mycobacterium tuberculosis
# [11] = NIH3T3 cell viability loss – ATP luminescence, mouse fibroblasts, counter-screen, dose response (AID 2010); type: functional, cell-based;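 note: cells exposed to compound for about 90 hours before reading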
# [12] = test system: Streptococcus sp. 'group A'; assay: Streptococcus pyogenes SK(-)GAS viability under kanamycin – luminescence, BacTiterGlo, confirmation, counter-screen for streptokinase expression inhibitor project, dose response (AID 1900); type: functional, organism-based
# Streptococcus = assay: GAS UMAA2166 growth inhibition – luminescence, BacTiterGlo, counter-screen for streptokinase expression inhibitor project, dose response (AID 1915); type: functional, organism-based;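 note: potency for reduction of bacterial viability or growth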
# [13] = Luminescence Cell-Based Dose Retest to Confirm Inhibitors of Cancer Stem Cells. [Related pubchem assays (depositor defined):AID2717, AID2721]; type: functional; settings: Homo sapiens
# Prothrombin = Prothrombin (Homo sapiens, UniProt P00734); assay: Thrombin 1536 HTS Dose Response Confirmation. [Related pubchem assays: 1046 (Thrombin 1536 HTS; hits were confirmed in this assay)]; type: functional
# [14] = biological target: T3, Microphthalmia-associated transcription factor (Homo sapiens, UniProt O75030); assay: reducers of TRPM1 reporter luminescence, concentration series – cell-based, SK-MEL-5, cherry-picked, set 3, MITF inhibitor project, dose response (AID 493073); type: functional;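 note: SK-MEL-5 melanoma cells with luciferase driven by the MITF target TRPM1 promoter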
# T3 sequence (O75030 whole entry): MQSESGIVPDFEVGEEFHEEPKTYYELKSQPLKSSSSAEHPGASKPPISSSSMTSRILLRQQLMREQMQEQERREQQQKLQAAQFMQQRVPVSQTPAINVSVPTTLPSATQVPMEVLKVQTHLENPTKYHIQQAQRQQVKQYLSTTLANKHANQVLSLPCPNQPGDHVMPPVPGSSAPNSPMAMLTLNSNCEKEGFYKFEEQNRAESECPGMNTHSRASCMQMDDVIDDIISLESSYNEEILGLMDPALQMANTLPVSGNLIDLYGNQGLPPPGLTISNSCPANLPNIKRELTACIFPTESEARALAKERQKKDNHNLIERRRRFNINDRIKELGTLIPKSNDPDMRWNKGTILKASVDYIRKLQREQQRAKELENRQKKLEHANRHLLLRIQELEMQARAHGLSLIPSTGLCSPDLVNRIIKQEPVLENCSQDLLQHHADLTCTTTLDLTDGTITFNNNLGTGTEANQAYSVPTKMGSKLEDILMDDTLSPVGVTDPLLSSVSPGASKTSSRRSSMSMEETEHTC
# [15] = biological target: T4, Ubiquitin-conjugating enzyme E2 N (Homo sapiens, UniProt P61088); type: functional;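 note: Dose-response confirmation in a TR-FRET assay detecting UBC13-driven polyubiquitin chain formation, inhibition measured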
# T4 sequence (P61088 whole entry): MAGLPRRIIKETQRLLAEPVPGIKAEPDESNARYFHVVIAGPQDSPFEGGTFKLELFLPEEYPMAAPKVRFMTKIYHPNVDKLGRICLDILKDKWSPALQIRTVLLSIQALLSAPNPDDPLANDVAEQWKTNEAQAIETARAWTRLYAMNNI
compound,measurement,setting,value
Cc1cccc(N2CCN(C(=O)CSCc3c(C)noc3C)CC2)c1C,AC50,[1],3.48 µM (active)
same,AC50,[2],2.41 µM (active)
same,EC50,[3],243 µM (active)
same,AC50,[4],36.3 µM (active)
COC(=O)[C@]1(C)CCC[C@@]2(C)C3CC[C@@]4(C)C[C@]3(CCC21)CC(=O)N4Cc1ccc(OC)cc1 (stereo partly specified),AC50,[1],10.6 µM (active)
same,AC50,[2],8.16 µM (active)
same,AC50,[4],> 70 µM (inactive)
Cc1ccc(C2C3CSCC=C3C(C#N)=C(N)C2(C#N)C#N)cc1 (stereo unspecified),EC50,[5],> 38 µM (not active)
same,EC50,[6],17.4 µM (active)
same,EC50,[7],> 20 µM (not active)
same,EC50,[8],> 160 µM (inactive)
COc1ccc(OC)c(S(=O)(=O)n2nnc3cc(Cl)ccc32)c1,IC50,Leucine aminopeptidase,103 µM (active)
COc1ccccc1C(=O)N=C(NC(=O)c1ccccc1OC)Nc1nc2ccccc2o1,EC50,[6],4.28 µM (active)
same,EC50,[7],5.05 µM (active)
same,EC50,[9],1.38 µM (active)
same,CC50,[10],14 µM (active)
same,EC50,[11],> 60 µM (not active)
CCCOC(=O)c1ccc(Oc2c(C)n[nH]c2-c2ccc(OCC)cc2O)cc1,EC50,[12],11.1 µM (active)
same,EC50,Streptococcus,> 150 µM (not active)
same,EC50,[6],11.9 µM (active)
same,EC50,[7],7.31 µM (active)
same,AC50,[13],3.66 µM (active)
COCCCNC(=O)/C(=C\c1cccn1C)NC(=O)c1cccs1,IC50,Prothrombin,> 50 µM (inconclusive)
O=C(NCC1CCCCC1)C1(CC2CC(c3cccc(Br)c3)=NO2)CCNCC1 (stereo unspecified),AC50,[14],18.1 µM (active)
same,IC50,[15],> 20 µM (inactive)
O=C(c1cc2ccccc2[nH]1)N1CCOCC1,IC50,Prothrombin,> 50 µM (not active)
